Some test systems named below: ACHN renal; MCF7 breast; EKVX NSCLC; UO-31 renal; HL-60(TB) leukemia; NCI-H460 lung; OVCAR-5 ovarian; HCC-2998 colon; T-47D breast; MALME-3M melanoma.
What all share (test): DTP human tumour cell line panel, 48 h

Structures are written as SMILES.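 Following 48 hours of exposure in 96-well plates, responses at five concentrations were used to interpolate endpoints linearly. GI50 is the concentration that inhibits growth by half. TGI: total growth inhibition.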 Bounds are passed on as bounds.

`COc1cc2cc(C(=O)CCC(=O)O)sc2cc1OC`: the GI50 – broadly, the concentration giving 50% growth inhibition – in the test on ACHN renal is more than 100 µM; with MCF7 breast, more than 100 µM; with EKVX NSCLC it was more than 100 µM; with UO-31 renal it was more than 100 µM; in the test with HL-60(TB) leukemia, 28.3 µM; with NCI-H460 lung it was more than 100 µM. In addition, the GI50 in the test on OVCAR-5 ovarian, in the test on HCC-2998 colon, with T-47D breast and in the test with MALME-3M melanoma was more than 100 µM throughout. Besides, the TGI in the test with ACHN renal, in the test on MCF7 breast, in the test with EKVX NSCLC, in the test with UO-31 renal, with HL-60(TB) leukemia and in the test with NCI-H460 lung was more than 100 µM throughout. The TGI in the test with OVCAR-5 ovarian, with HCC-2998 colon, in the test with T-47D breast and in the test with MALME-3M melanoma was more than 100 µM throughout.
With `COc1cc(-c2nc3sccn3c2-c2ccnc(NCCNS(=O)(=O)c3ccc(Cl)cc3)n2)ccc1F`, the GI50 in the test on ACHN renal is 2.77 µM; with MCF7 breast it was 3.24 µM; in the test with EKVX NSCLC, 5.04 µM; in the test with UO-31 renal, 2.72 µM; in the test with HL-60(TB) leukemia it was 3.74 µM; in the test with NCI-H460 lung, 5.16 µM. Besides, the GI50 in the test on OVCAR-5 ovarian is 55 µM; in the test with HCC-2998 colon, 5.82 µM; with T-47D breast, 1.44 µM; with MALME-3M melanoma it was 3.35 µM. For the same molecule, the total growth inhibition concentration (TGI) in the test with ACHN renal, in the test with MCF7 breast, in the test on EKVX NSCLC, with UO-31 renal, in the test on HL-60(TB) leukemia and with NCI-H460 lung was more than 100 µM each time. The total growth inhibition concentration (TGI) (as a rule, the concentration at which net growth stops) was more than 100 µM in the test with OVCAR-5 ovarian, more than 100 µM in the test with HCC-2998 colon, 8.46 µM in the test on T-47D breast and more than 100 µM in the test on MALME-3M melanoma.
As for `O=C(Nc1ccc(F)cc1)Nc1ccccc1CNc1nc(Nc2ccc(OCCN3CCCC3)cc2)ncc1Cl`, the GI50 was 1.26 µM with ACHN renal; 1.37 µM in the test on MCF7 breast; 2.22 µM in the test with EKVX NSCLC; 0.742 µM with UO-31 renal; 1.07 µM in the test on HL-60(TB) leukemia; 1.15 µM in the test with NCI-H460 lung. The GI50 in the test with OVCAR-5 ovarian was 1.76 µM; in the test on HCC-2998 colon, 2.73 µM; with T-47D breast it was 1.48 µM; with MALME-3M melanoma, 0.81 µM. Further, the total growth inhibition concentration (TGI) worked out at 3.15 µM in the test with ACHN renal; 4.75 µM in the test on MCF7 breast; 9.82 µM with EKVX NSCLC; 1.49 µM in the test on UO-31 renal; 2.31 µM in the test on HL-60(TB) leukemia; 2.7 µM in the test with NCI-H460 lung. In addition, the TGI in the test with OVCAR-5 ovarian was 6.88 µM; in the test on HCC-2998 colon, 9.27 µM; in the test with T-47D breast, 4.28 µM; with MALME-3M melanoma, 1.55 µM.
Regarding `C/C=C/C/C=C/CCC(=O)[C@H]1O[C@H]1C(N)=O`, the concentration for total growth inhibition (TGI) in the test on ACHN renal came to 26.9 µM; with MCF7 breast it was 26.1 µM; with EKVX NSCLC, 28.9 µM; with UO-31 renal, 22.9 µM; in the test with HL-60(TB) leukemia, 25.2 µM; in the test with NCI-H460 lung it was 39.4 µM. In addition, the TGI with OVCAR-5 ovarian stood at 31.4 µM; in the test with HCC-2998 colon, 28.5 µM; in the test with T-47D breast, 34 µM; in the test with MALME-3M melanoma, 32.9 µM. The GI50 in the test on MCF7 breast was 12.6 µM; in the test with EKVX NSCLC, 14.1 µM; in the test on UO-31 renal it was 9.21 µM; in the test with HL-60(TB) leukemia, 5.19 µM; with NCI-H460 lung it was 17 µM; in the test on OVCAR-5 ovarian, 16.8 µM. Besides, the GI50 with HCC-2998 colon was 15 µM; with T-47D breast, 13.7 µM; in the test with MALME-3M melanoma, 13.7 µM.
As for `O=[N+]([O-])c1ccccc1N=Nc1c(O)[nH]c2ccc(Br)cc12`, the concentration for total growth inhibition (TGI) in the test on ACHN renal is 22.9 µM; with MCF7 breast, 59.9 µM; in the test on EKVX NSCLC, more than 59 µM; with UO-31 renal it was 44.7 µM; with HL-60(TB) leukemia, more than 68.8 µM; in the test with NCI-H460 lung it was 25 µM. The concentration for total growth inhibition (TGI) with OVCAR-5 ovarian was 33.3 µM; with HCC-2998 colon, 34.1 µM; in the test on T-47D breast it was more than 78.7 µM; in the test with MALME-3M melanoma, more than 100 µM.
Regarding `Cn1ccnc1C(=O)/C=C/c1ccc(C(=O)Nc2ccc(S(F)(F)(F)(F)F)cc2)cc1`, the GI50 in the test on ACHN renal is 5.12 µM; in the test with MCF7 breast, 0.481 µM; in the test on EKVX NSCLC, 0.953 µM; with UO-31 renal, 2.22 µM; in the test with HL-60(TB) leukemia, 0.945 µM; in the test on NCI-H460 lung it was 0.534 µM. The GI50 in the test with OVCAR-5 ovarian was 3.3 µM; in the test on HCC-2998 colon, 2.93 µM; in the test with T-47D breast, 0.923 µM; in the test on MALME-3M melanoma, 5.76 µM. For the same molecule, the TGI is more than 14.3 µM in the test with ACHN renal; more than 14.3 µM in the test with MCF7 breast; more than 14.3 µM with EKVX NSCLC; more than 14.3 µM in the test with UO-31 renal; 5.49 µM in the test with HL-60(TB) leukemia; 2.57 µM in the test on NCI-H460 lung. In addition, the TGI in the test on OVCAR-5 ovarian, with HCC-2998 colon, in the test with T-47D breast and in the test with MALME-3M melanoma was more than 14.3 µM each time.
Take `Nc1ccccc1-c1ccc([N+](=O)[O-])cc1`: the GI50 is 4.99 µM in the test on ACHN renal; 35 µM in the test on MCF7 breast; 8.58 µM in the test with EKVX NSCLC; 5.07 µM in the test with UO-31 renal; 2.93 µM in the test with HL-60(TB) leukemia; 4.44 µM with NCI-H460 lung. Also, the GI50 in the test with OVCAR-5 ovarian is 31.8 µM; in the test with HCC-2998 colon it was 2.25 µM; with T-47D breast, 3.04 µM; in the test on MALME-3M melanoma, 16.5 µM. The TGI in the test with ACHN renal is more than 100 µM; with MCF7 breast it was more than 100 µM; in the test with EKVX NSCLC it was more than 100 µM; in the test with UO-31 renal it was more than 100 µM; in the test with HL-60(TB) leukemia, 26.1 µM; in the test on NCI-H460 lung, more than 100 µM. Also, the TGI in the test with OVCAR-5 ovarian is more than 100 µM; in the test with HCC-2998 colon it was 8.54 µM; with T-47D breast, more than 100 µM; with MALME-3M melanoma, more than 100 µM.
As for `CC(C)c1c(C(=O)Nc2ccccc2)c(-c2ccccc2)c(-c2ccc(F)cc2)n1CC[C@@H]1CC=CC(=O)O1`, the GI50 in the test with ACHN renal is 1.57 µM; in the test with MCF7 breast, 1.78 µM; in the test with EKVX NSCLC, 1.86 µM; in the test with UO-31 renal it was 1.28 µM; in the test with HL-60(TB) leukemia it was 1.24 µM; in the test with NCI-H460 lung, 2.05 µM. Moreover, the GI50 was 2.05 µM in the test on OVCAR-5 ovarian, 1.92 µM with HCC-2998 colon, 2.58 µM in the test on T-47D breast and 1.76 µM in the test on MALME-3M melanoma. The TGI worked out at 2.92 µM with ACHN renal; 4.01 µM with MCF7 breast; 3.68 µM in the test with EKVX NSCLC; 2.57 µM in the test on UO-31 renal; 6.42 µM in the test with HL-60(TB) leukemia; 4.21 µM with NCI-H460 lung. Also, the concentration for total growth inhibition (TGI) with OVCAR-5 ovarian came out at 5.02 µM; with HCC-2998 colon, 3.5 µM; with T-47D breast it was 7.65 µM; in the test on MALME-3M melanoma, 3.41 µM.
Regarding `C=C(C)C1Cc2c(cc(OC)c3c(=O)c4cccc(O)c4oc23)O1` (centres undefined), the TGI in the test with ACHN renal was 32.1 µM; in the test with MCF7 breast, 17.4 µM; with EKVX NSCLC it was more than 100 µM; with UO-31 renal, 39 µM; in the test with HL-60(TB) leukemia, more than 100 µM; in the test on NCI-H460 lung, 62.6 µM. Also, the concentration for total growth inhibition (TGI) was more than 100 µM in the test with OVCAR-5 ovarian, more than 100 µM in the test with HCC-2998 colon, 40 µM in the test on T-47D breast and 48.4 µM in the test with MALME-3M melanoma.
In the case of `CN(Cc1ccc(Cl)cc1)c1ccc(CO)c(Cl)c1`, the GI50 with ACHN renal is 5.83 µM; with MCF7 breast, 1.34 µM; with EKVX NSCLC, 13.5 µM; with UO-31 renal it was 3.23 µM; in the test on HL-60(TB) leukemia, 5.28 µM; in the test with NCI-H460 lung, 1.35 µM. Also, the GI50 was 0.644 µM with OVCAR-5 ovarian, 9.36 µM with HCC-2998 colon, 0.764 µM in the test on T-47D breast and 13.4 µM in the test on MALME-3M melanoma. Besides, the TGI was found to be 23.6 µM in the test on ACHN renal; 12.5 µM in the test on MCF7 breast; 35.3 µM with EKVX NSCLC; 14.5 µM with UO-31 renal; 42.4 µM in the test on HL-60(TB) leukemia; 11.1 µM in the test with NCI-H460 lung. Besides, the total growth inhibition concentration (TGI) turned out to be 4.67 µM in the test with OVCAR-5 ovarian, 22.1 µM in the test on HCC-2998 colon, 5.4 µM in the test on T-47D breast and 29.2 µM in the test with MALME-3M melanoma.
In the case of `N/C(=C\C(=O)n1nc(-c2ccccc2)cc1N)c1ccccc1`, the GI50 in the test on ACHN renal is 8.29 µM; in the test with MCF7 breast, 2.86 µM; in the test with EKVX NSCLC it was 5.57 µM; in the test with UO-31 renal, 3.71 µM; with HL-60(TB) leukemia, 1.88 µM; in the test on NCI-H460 lung, 3.55 µM. The GI50 in the test on OVCAR-5 ovarian is 19.2 µM; in the test on HCC-2998 colon, 11.8 µM; with T-47D breast, 3.27 µM; in the test on MALME-3M melanoma it was 7.51 µM. Further, the TGI in the test with ACHN renal was more than 100 µM; in the test on MCF7 breast it was 21.1 µM; in the test on EKVX NSCLC, 35.9 µM; in the test with UO-31 renal it was 65.3 µM; with HL-60(TB) leukemia, 5.99 µM; in the test on NCI-H460 lung, 15.8 µM. Moreover, the TGI stood at 61.6 µM with OVCAR-5 ovarian, 34.2 µM with HCC-2998 colon, 26.3 µM in the test on T-47D breast and 25.2 µM with MALME-3M melanoma.
`CCN1/C(=C/C=C/c2n(-c3ccccc3)c3ccc(-c4nc5ccccc5s4)cc3[n+]2CC)N(c2ccccc2)c2ccc(-c3nc4ccccc4s3)cc21`: the GI50 in the test on ACHN renal was 0.622 µM; in the test on MCF7 breast it was 0.426 µM; with EKVX NSCLC, 0.387 µM; with UO-31 renal, 0.622 µM; with HL-60(TB) leukemia it was 0.464 µM; with NCI-H460 lung, 0.527 µM. The GI50 with OVCAR-5 ovarian is 1.53 µM; with HCC-2998 colon it was 1.69 µM; with T-47D breast it was 0.746 µM; in the test on MALME-3M melanoma, 0.161 µM. Further, the TGI with ACHN renal is more than 50 µM; with MCF7 breast it was more than 50 µM; with EKVX NSCLC it was more than 50 µM; with UO-31 renal, 3.57 µM; with HL-60(TB) leukemia, more than 50 µM; in the test with NCI-H460 lung it was more than 50 µM. For the same molecule, the concentration for total growth inhibition (TGI) in the test with OVCAR-5 ovarian is more than 50 µM; in the test with HCC-2998 colon, more than 31.1 µM; in the test on T-47D breast, more than 50 µM; in the test with MALME-3M melanoma, 0.838 µM.

For the origin of these results see PubChem BioAssay (NCI).
